# According to patent publication US8575158B2, “1-phenyl-substituted heterocyclyl derivatives and their use as prostaglandin D2 receptor modulators” (Actelion Pharmaceuticals Ltd., priority 2010, dated 2013):
# Biological target: T1, hCRTH2 receptor (Homo sapiens, UniProt Q9Y5Y4)
# T1 construct: expressed in transfected cells; host or cells: HEK293
# T1 sequence (Q9Y5Y4 1-395): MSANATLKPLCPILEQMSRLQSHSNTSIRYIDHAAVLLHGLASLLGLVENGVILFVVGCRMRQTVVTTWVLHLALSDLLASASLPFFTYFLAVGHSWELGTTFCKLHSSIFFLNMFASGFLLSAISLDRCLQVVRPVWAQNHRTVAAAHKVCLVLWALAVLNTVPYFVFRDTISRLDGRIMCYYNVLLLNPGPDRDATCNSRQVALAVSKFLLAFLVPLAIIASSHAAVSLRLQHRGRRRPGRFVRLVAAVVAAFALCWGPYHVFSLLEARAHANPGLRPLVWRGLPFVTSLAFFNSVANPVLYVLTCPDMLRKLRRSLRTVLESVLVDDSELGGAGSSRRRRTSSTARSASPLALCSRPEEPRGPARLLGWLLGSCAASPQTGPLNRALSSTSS
# Experiment: Radioligand displacement assay (3H-PGD2) on hCRTH2 receptor membranes
# Assay type: binding
# Conditions: antagonistic activity, 3H-PGD2 radioligand displacement, HEK293-hCRTH2 membranes
row,IC50,Structure (SMILES)
1,17.9 nM,"Cc1cnn(COC(=O)N2CCc3cc(F)ccc3[C@H]2c2cc(Cl)ccc2OCC(=O)O)c1 [Example 342, (S)-1-(2-Carboxymethoxy-5-chloro-phenyl)-6-fluoro-3,4-dihydro-1H-isoquinoline-2-carboxylic acid 4-methyl-pyrazol-1-ylmethyl ester]"
2,316 nM,COc1cc(OCC(=O)N2CCc3ccccc3C2c2cc(Cl)ccc2OCC(=O)O)cnc1OC (racemic) [Example 485]
3,11.5 nM,"O=C(O)COc1ccc(Cl)cc1[C@@H]1c2ccc(F)cc2CCN1C(=O)OCCc1cccc(F)c1 [Example 336, (S)-1-(2-Carboxymethoxy-5-chloro-phenyl)-6-fluoro-3,4-dihydro-1H-isoquinoline-2-carboxylic acid 2-(3-fluoro-phenyl)-ethyl ester]"
4,19.6 nM,O=C(O)COc1ccc(Cl)cc1C1c2ccccc2CN1C(=O)NCc1ccccc1F (racemic) [Example 552]
5,240 nM,O=C(O)COc1ccc(Cl)cc1C1c2ccccc2CN1C(=O)CCn1ncc2c(Cl)cccc21 (stereo not drawn) [Example 550]
6,4.55 nM,"Cc1cnc(COC(=O)N2CCc3c(ccc(F)c3F)[C@H]2c2cc(Cl)ccc2OCC(=O)O)s1 [Example 301, (S)-1-(2-Carboxymethoxy-5-chloro-phenyl)-5,6-difluoro-3,4-dihydro-1H-isoquinoline-2-carboxylic acid 5-methyl-thiazol-2-ylmethyl ester]"
7,2.08 nM,"Cc1cnn(COC(=O)N2CCc3ccccc3[C@H]2c2cc(Cl)ccc2OCC(=O)O)c1 [Example 292, (S)-1-(2-Carboxymethoxy-5-chloro-phenyl)-3,4-dihydro-1H-isoquinoline-2-carboxylic acid 4-methyl-pyrazol-1-ylmethyl ester]"
8,789 nM,"CC(C)[C@@H]1C[C@H]1C(=O)N1CCc2ccccc2[C@H]1c1cc(Cl)ccc1OCC(=O)O (single isomer, unassigned) [Example 464]"
9,13.9 nM,Cc1cn(CCC(=O)N2CCc3ccccc3C2c2cc(Cl)ccc2OCC(=O)O)c2ccccc12 (racemic) [Example 447]
10,5.17 nM,"Cn1cncc1COC(=O)N1CCc2cc(F)ccc2[C@H]1c1cc(Cl)ccc1OCC(=O)O [Example 340, (S)-1-(2-Carboxymethoxy-5-chloro-phenyl)-6-fluoro-3,4-dihydro-1H-isoquinoline-2-carboxylic acid 3-methyl-3H-imidazol-4-ylmethyl ester]"
11,232 nM,O=C(O)COc1ccc(Cl)cc1C1c2ccccc2CCN1C(=O)COc1cncc(F)c1 (racemic) [Example 478]
12,11.7 nM,O=C(O)COc1ccc(Cl)cc1C1c2ccccc2CN1C(=O)CCOc1ccccc1F (racemic) [Example 522]
13,25.7 nM,O=C(O)COc1ccc(Cl)cc1C1c2ccccc2CCN1C(=O)CCn1ccc2ccc(F)cc21 (racemic) [Example 388]
14,12.9 nM,O=C(O)COc1ccc(Cl)cc1C1c2ccc(F)cc2CN1C(=O)OCc1ccccc1 (racemic) [Example 500]
15,42.5 nM,Cc1ccc(OCC(=O)N2Cc3ccccc3C2c2cc(Cl)ccc2OCC(=O)O)c(C)n1 (racemic) [Example 512]
16,60.1 nM,O=C(O)COc1ccc(Cl)cc1C1c2ccccc2CN1C(=O)CCN1CCCc2ccccc21 (racemic) [Example 515]
17,22.8 nM,COc1ccc(COC(=O)N2CCc3ccccc3C2c2cc(Cl)ccc2OCC(=O)O)cc1 (racemic) [Example 361]
18,129 nM,O=C(O)COc1ccc(Cl)cc1C1c2ccccc2CN1C(=O)Cn1ccc2ccccc21 (racemic) [Example 507]

# Same assay, conditions: antagonistic activity; 3H-PGD2 displacement on HEK293-hCRTH2 membrane fragments
row,Structure (SMILES),IC50
1,"Cc1ccccc1CCC(=O)N1CCc2ccccc2C1c1cc(Cl)ccc1OCC(=O)O (racemic) [Example 104, (±)-{4-Chloro-2-[2-(3-o-tolyl-propionyl)-1,2,3,4-tetrahydro-isoquinolin-1-yl]-phenoxy}-acetic acid]",28.6 nM
2,"O=C(O)COc1ccc(F)cc1C1c2cccc(C(F)(F)F)c2CCN1C(=O)OCc1ccccc1 (racemic) [Example 12, (±)-1-(2-Carboxymethoxy-5-fluoro-phenyl)-5-trifluoromethyl-3,4-dihydro-1H-isoquinoline-2-carboxylic acid benzyl ester]",4.59 nM
3,COc1ccccc1OC(=O)N1CCc2ccccc2C1c1cc(F)ccc1OCC(=O)O (racemic) [Example 168],109 nM
4,"CC(C)c1ccc(OCC(=O)O)c(C2c3ccccc3CCN2C(=O)OCc2ccccc2)c1 (racemic) [Example 22, (±)-1-(2-Carboxymethoxy-5-isopropyl-phenyl)-3,4-dihydro-1H-isoquinoline-2-carboxylic acid benzyl ester]",483 nM
5,"O=C(O)COc1cc2c(cc1C1c3ccccc3CCN1C(=O)OCc1ccccc1)OCO2 (racemic) [Example 23, (±)-1-(6-Carboxymethoxy-benzo[1,3]dioxol-5-yl)-3,4-dihydro-1H-isoquinoline-2-carboxylic acid benzyl ester]",227 nM
6,"O=C(O)COc1ccc(F)cc1C1c2ccccc2CCN1C(=O)Cc1ccc2ncccc2c1 (racemic) [Example 49, (±)-{4-Fluoro-2-[2-(2-quinolin-6-yl-acetyl)-1,2,3,4-tetrahydro-isoquinolin-1-yl]-phenoxy}-acetic acid]",35.7 nM
7,"O=C(O)COc1ccc(F)cc1C1c2ccccc2CCN1C(=O)COc1ccccc1Cl (racemic) [Example 138, (±)-(2-{2-[2-(2-Chloro-phenoxy)-acetyl]-1,2,3,4-tetrahydro-isoquinolin-1-yl}-4-fluoro-phenoxy)-acetic acid]",101 nM
8,COCCOC(=O)N1CCc2ccccc2C1c1cc(F)ccc1OCC(=O)O (racemic) [Example 172],59.8 nM
9,"O=C(O)COc1ccc(F)cc1C1c2ccccc2CCN1C(=O)Cc1ccc2ccccc2c1 (racemic) [Example 135, (±)-{4-Fluoro-2-[2-(2-naphthalen-2-yl-acetyl)-1,2,3,4-tetrahydro-isoquinolin-1-yl]-phenoxy}-acetic acid]",42.2 nM
10,"Cc1ccccc1CCCC(=O)N1CCc2ccccc2C1c1cc(Cl)ccc1OCC(=O)O (racemic) [Example 111, (±)-{4-Chloro-2-[2-(4-o-tolyl-butyryl)-1,2,3,4-tetrahydro-isoquinolin-1-yl]-phenoxy}-acetic acid]",45 nM
11,"O=C(O)COc1ccc(Cl)cc1C1c2ccccc2CCN1C(=O)OCCc1ccccc1Cl (racemic) [Example 176, (±)-1-(2-Carboxymethoxy-5-chloro-phenyl)-3,4-dihydro-1H-isoquinoline-2-carboxylic acid 2-(2-chloro-phenyl)-ethyl ester]",10.4 nM
12,"O=C(O)COc1ccc(Br)cc1C1c2cc(F)c(F)cc2CCN1C(=O)OCc1ccccc1 (racemic) [Example 10, (±)-1-(5-Bromo-2-carboxymethoxy-phenyl)-6,7-difluoro-3,4-dihydro-1H-isoquinoline-2-carboxylic acid benzyl ester]",74 nM
13,"O=C(O)COc1ccc(-n2ccnn2)cc1C1c2ccccc2CCN1C(=O)OCc1ccccc1 (racemic) [Example 223, (±)-1-(2-Carboxymethoxy-5-[1,2, 3]triazol-1-yl-phenyl)-3,4-dihydro-1H-isoquinoline-2-carboxylic acid benzyl ester]",7.01 nM
14,"Cn1cc(CCC(=O)N2CCc3ccccc3C2c2cc(Cl)ccc2OCC(=O)O)c2ccccc21 (racemic) [Example 76, (±)-(4-Chloro-2-{2-[3-(1-methyl-1H-indol-3-yl)-propionyl]-1,2,3,4-tetrahydro-isoquinolin-1-yl}-phenoxy)-acetic acid]",4.46 nM
15,Cc1ccc(COCC(=O)N2CCc3ccccc3C2c2cc(F)ccc2OCC(=O)O)cc1 (racemic) [Example 194],90.2 nM
16,"COCCC(=O)N1CCc2ccccc2C1c1cc(Cl)ccc1OCC(=O)O (racemic) [Example 70, (±)-{4-Chloro-2-[2-(3-methoxy-propionyl)-1,2,3,4-tetrahydro-isoquinolin-1-yl]-phenoxy}-acetic acid]",139 nM
17,"Cc1cccc2c1CCN(C(=O)OCc1ccccc1)C2c1cc(F)ccc1OCC(=O)O (racemic) [Example 39, (±)-1-(2-Carboxymethoxy-5-fluoro-phenyl)-5-methyl-3,4-dihydro-1H-isoquinoline-2-carboxylic acid benzyl ester]",22.2 nM

# Other lines, results leading:
row,IC50,Structure (SMILES)
1,12.3 nM,Cc1cc(C)c(COC(=O)N2CCc3ccccc3C2c2cc(Cl)ccc2OCC(=O)O)c(C)c1 (racemic) [Example 251]
2,6.52 nM,O=C(O)COc1ccc(Cl)cc1C1c2ccccc2CCN1C(=O)OCc1cc(Cl)ccc1Cl (racemic) [Example 253]
3,4.95 nM,"O=C(O)COc1ccc(Cl)cc1[C@@H]1c2ccc(F)c(F)c2CCN1C(=O)OCc1ccccc1 [Example 229, (S)-1-(2-Carboxymethoxy-5-chloro-phenyl)-5,6-difluoro-3,4-dihydro-1H-isoquinoline-2-carboxylic acid benzyl ester]"
4,97.1 nM,C[C@H](OC(=O)N1CCc2ccccc2[C@H]1c1cc(Cl)ccc1OCC(=O)O)c1ccccc1 [Example 261]
5,16 nM,COc1ccc(COC(=O)N2CCc3ccccc3C2c2cc(Cl)ccc2OCC(=O)O)c(OC)c1 (racemic) [Example 254]
6,7.91 nM,Cn1ccc(COC(=O)N2CCc3ccccc3C2c2cc(Cl)ccc2OCC(=O)O)n1 (racemic) [Example 263]

# Same assay, conditions: radioligand displacement (3H-PGD2), hCRTH2 receptor membranes; antagonistic activity
row,IC50,Structure (SMILES)
1,4.29 nM,"O=C(O)COc1ccc(Cl)cc1[C@@H]1c2ccccc2CCN1C(=O)[C@@H]1C[C@H]1c1cccc(Cl)c1 [Example 564, (4-Chloro-2-{(S)-2-[(1R,2R)-2-(3-chloro-phenyl)-cyclopropanecarbonyl]-1,2,3,4-tetrahydro-isoquinolin-1-yl}-phenoxy)-acetic acid]"
